This test deals with T1, UCHL1 (Homo sapiens, UniProt P09936).
T1 construct: made in house; host or cells: HEK293T
T1 sequence (P09936 1-223): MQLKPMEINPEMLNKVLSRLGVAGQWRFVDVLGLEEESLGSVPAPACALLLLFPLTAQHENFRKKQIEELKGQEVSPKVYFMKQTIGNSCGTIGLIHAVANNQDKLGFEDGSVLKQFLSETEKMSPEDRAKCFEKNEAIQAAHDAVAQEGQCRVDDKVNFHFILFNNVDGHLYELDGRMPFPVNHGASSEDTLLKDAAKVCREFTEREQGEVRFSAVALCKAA
Kind of test: UCHL1 biochemical IC50 assay (fluorescence polarisation). The conditions noted are these: 30 min enzyme/compound pre-incubation at room temp, read after 2 hr incubation, read-out: Activity range (UCHL1 biochemical IC50 assay). The procedure, abridged:
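FLAG-UCHL1 purified from transfected HEK293T cells was preincubated 30 min at room temperature with compound (8 points, 100–0.03 μM final) in Tris pH 7.5 buffer with Tween 20, BSA and beta-mercaptoethanol. Reaction started with 50 nM TAMRA-peptide–ubiquitin isopeptide substrate; fluorescence polarisation (ex 540/em 590 nm) read at once and after 2 h.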
For orientation: Polarisation of emitted light reports the rotation of a fluorescent probe.

Turning to `N#CN1CC[C@H](C(=O)Nc2cn(C3Cc4ccccc4C3)cn2)C1` [Example 164, (S)-1-cyano-N-(1-(2,3-dihydro-1H-inden-2-yl)-1H-imidazol-4-yl)pyrrolidine-3-carboxamide], the IC50 (in general, the concentration that gives 50% inhibition) was below 1000 nM.

For `N#CN1CC[C@H](C(=O)Nc2ncc(-c3cccc(-n4cccn4)c3)s2)C1` [Example 218, (S)-N-(5-(3-(1H-pyrazol-1-yl)phenyl)thiazol-2-yl)-1-cyanopyrrolidine-3-carboxamide], the IC50 is below 1000 nM.

On to `N#CN1CCC(C(=O)Nc2cc(-c3ccccc3)no2)C1` (centres unmarked) [Example 13], for which the IC50 was in the range of 1000 to 10000 nM.

Take `N#CN1CCC(C(=O)Nc2nc3ccc(Br)cc3s2)C1` (centres unmarked) [Example 22, N-(6-bromobenzo[d]thiazol-2-yl)-1-cyano-pyrrolidine-3-carboxamide]: the IC50 lay within 1000 to 10000 nM.

Regarding `N#Cc1cccc(-c2cnc(NC(=O)[C@H]3CCN(C#N)C3)s2)c1` [Example 117, (S)-1-cyano-N-(5-(3-cyanophenyl)thiazol-2-yl)pyrrolidine-3-carboxamide], the concentration for half-maximal inhibition (IC50) was below 1000 nM.

With `N#CN1CC[C@H](C(=O)Nc2cc3n(n2)CCN(Cc2ccccc2)C3)C1` [Example 242, (S)—N-(5-benzyl-4,5,6,7-tetrahydropyrazolo[1,5-a]pyrazin-2-yl)-1-cyanopyrrolidine-3-carboxamide], the IC50 was below 1000 nM.

On to `N#Cc1ccc(OCCCN2CCOCC2)cc1-n1cnc(NC(=O)[C@H]2CCN(C#N)C2)c1` [Example 246, (S)-1-cyano-N-(1-(2-cyano-5-(3-morpholinopropoxy)phenyl)-1H-imidazol-4-yl)pyrrolidine-3-carboxamide], for which the IC50 was below 1000 nM.

In the case of `N#CN1C[C@@H](C(=O)Nc2ncc(-c3ccccc3)s2)[C@H](c2cccnc2)C1` (relative stereo) [Example 282, trans-1-cyano-N-(5-phenylthiazol-2-yl)-4-(pyridin-3-yl)pyrrolidine-3-carboxamide], the IC50 was in the range of 1000 to 10000 nM.

Regarding `COc1ccc(-n2cnc(NC(=O)[C@H]3CCN(C#N)C3)c2)cc1` [Example 159, (S)-1-cyano-N-(1-(4-methoxyphenyl)-1H-imidazol-4-yl)pyrrolidine-3-carboxamide], the IC50 is below 1000 nM.

For `CNC(=O)c1cccc(-c2cnc(NC(=O)[C@H]3CCN(C#N)C3)s2)n1` [Example 224, (S)-6-(2-(1-cyanopyrrolidine-3-carboxamido)thiazol-5-yl)-N-methylpicolinamide], the half-inhibitory concentration (IC50) is below 1000 nM.

In the case of `N#CN1CC[C@@H](C(=O)Nc2ncc(N3CCOCC3)s2)C1` [Example 102, (R)-1-cyano-N-(5-morpholinothiazol-2-yl)pyrrolidine-3-carboxamide], the IC50 fell in the range of 1000 to 10000 nM.

Consider `N#CN1CC[C@H](C(=O)Nc2cc(-c3ccnc(N)c3)ccn2)C1` [Example 258, (S)-N-(2′-amino-[4,4′-bipyridin]-2-yl)-1-cyanopyrrolidine-3-carboxamide], for which the IC50 fell in the range of 1000 to 10000 nM.

In the case of `COCC1(C(=O)Nc2ncc(-c3ccccc3)s2)CCN(C#N)C1` (centres unmarked) [Example 80, I-cyano-3-(methoxymethyl)-N-(5-phenylthiazol-2-yl)pyrrolidine-3-carboxamide], the IC50 fell in the range of 10000 to 30000 nM.

Turning to `N#CN1CC[C@H](C(=O)Nc2cc(-c3ccnc4ccnn34)ccn2)C1` [Example 251, (S)-1-cyano-N-(4-(pyrazolo[1,5-a]pyrimidin-7-yl)pyridin-2-yl)pyrrolidine-3-carboxamide], the IC50 is below 1000 nM.

As for `N#CN1CC[C@H](C(=O)Nc2nc3ccc(-c4ccccc4)cc3s2)C1` [Example 122, (S)-1-cyano-N-(6-phenylbenzo[d]thiazol-2-yl)pyrrolidine-3-carboxamide], the IC50 fell in the range of 1000 to 10000 nM.

For the compound `C[C@H]1[C@@H](C(=O)Nc2cn(-c3ccccc3)cn2)CCN1C#N` [Example 74, (2S,3S)-1-cyano-2-methyl-N-(1-phenyl-1H-imidazol-4-yl)pyrrolidine-3-carboxamide], the IC50 was below 1000 nM.

Take `CS(=O)(=O)Nc1ccc(-c2cnc(NC(=O)[C@H]3CCN(C#N)C3)s2)cc1` [Example 217, (S)-1-cyano-N-(5-(4-(methylsulfonamido)phenyl)thiazol-2-yl)pyrro1idine-3-carboxamide]: the IC50 is below 1000 nM.

Consider `Cn1nc(NC(=O)[C@H]2CCN(C#N)C2)cc1-c1ccccc1` [Example 60, (S)-1-cyano-N-(1-methyl-5-phenyl-1H-pyrazol-3-yl)pyrrolidine-3-carboxamide], for which the IC50 was below 1000 nM.

Turning to `C#Cc1ccc(-c2cnc(NC(=O)[C@H]3CCN(C#N)C3)s2)cc1` [Example 205, (S)-1-cyano-N-(5-(4-ethynylphenyl)thiazol-2-yl)pyrrolidine-3-carboxamide], the half-inhibitory concentration (IC50) was below 1000 nM.

With `N#CN1CC[C@H](C(=O)Nc2nc3c(Br)cccc3s2)C1` [Example 48, (S)-N-(4-bromobenzo[d]thiazol-2-yl)-1-cyano-pyrrolidine-3-carboxamide], the IC50 was in the range of 1000 to 10000 nM.

Take `CNC(=O)c1ccc2cnc(NC(=O)[C@H]3CCN(C#N)C3)cc2c1` [Example 260, (S)-3-(1-cyanopyrrolidine-3-carboxamido)-N-methylisoquinoline-6-carboxamide]: the IC50 fell in the range of 1000 to 10000 nM.

As for `N#Cc1ccc(-n2cnc(NC(=O)[C@H]3CCN(C#N)C3)c2)cc1OC(F)(F)F` [Example 310, (S)-1-cyano-N-(1-(4-cyano-3-(trifluoromethoxy)phenyl)-1H-imidazol-4-yl)pyrrolidine-3-carboxamide], the half-maximal inhibitory concentration (IC50) is below 1000 nM.

For the compound `N#Cc1ccc(O[C@H]2CCOC2)cc1-n1cnc(NC(=O)[C@H]2CCN(C#N)C2)c1` [Example 248, (S)-1-cyano-N-(1-(2-cyano-5-(((S)-tetrahydrofuran-3-yl)oxy)phenyl)-1H-imidazol-4-yl)pyrrolidine-3-carboxamide], the IC50 lay within 1000 to 10000 nM.

`COc1cc(-c2ccc3nc(NC(=O)[C@H]4CCN(C#N)C4)cn3c2)c(OC)nn1` [Example 131, (S)-1-cyano-N-(6-(3,6-dimethoxypyridazin-4-yl)imidazo[1,2-a]pyridin-2-yl)pyrrolidine-3-carboxamide]: the IC50 was below 1000 nM.

For the compound `Cc1noc(C)c1-c1cnc2nc(NC(=O)[C@H]3CCN(C#N)C3)sc2c1` [Example 285, (S)-1-cyano-N-(6-(3,5-dimethylisoxazol-4-yl)thiazolo[4,5-b]pyridin-2-yl)pyrrolidine-3-carboxamide], the IC50 was 1000 to 10000 nM.

As to `Cc1cccc(-c2ccc(NC(=O)C3CCN(C#N)C3)nc2)c1` (centres unmarked) [Example 135, 1-cyano-N-(5-(m-tolyl)pyridin-2-yl)pyrrolidine-3-carboxamide], the IC50 was in the range of 1000 to 10000 nM.

Turning to `C#CCNC(=O)c1cc(-c2cnc(NC(=O)[C@H]3CCN(C#N)C3)s2)ccc1Cl` [Example 239, (S)-N-(5-(4-chloro-3-(prop-2-yn-1-ylcarbarmoyl)phenyl)thiazol-2-yl)-1-cyanopyrrolidine-3-carboxamide], the IC50 is below 1000 nM.

Consider `COCCOc1cc(-n2cnc(NC(=O)[C@H]3CCN(C#N)C3)c2)ccc1C#N` [Example 243, (S)-1-cyano-N-(1-(4-cyano-3-(2-methoxyethoxy)phenyl)-1H-imidazol-4-yl)pyrrolidine-3-carboxamide], for which the IC50 was below 1000 nM.

Turning to `N#CN1CC[C@H](C(=O)Nc2ncc(-c3ccc4[nH]ncc4c3)s2)C1` [Example 223, (S)-N-(5-(1H-indazol-5-yl)thiazol-2-yl)-1-cyanopyrrolidine-3-carboxamide], the IC50 is below 1000 nM.

As to `COc1cc(-n2cnc(NC(=O)[C@H]3CCN(C#N)C3)c2)ccc1C#N` [Example 307, (S)-1-cyano-N-(1-(4-cyano-3-methoxyphenyl)-1H-imidazol-4-yl)pyrrolidine-3-carboxamide], the concentration for half-maximal inhibition (IC50) was below 1000 nM.

With `COc1ccc(NC(=O)C2CCN(C#N)C2)nc1` (centres unmarked) [Example 27, 1-cyano-N-(5-methoxy-pyridin-2-yl)pyrrolidine 3-carboxamide], the IC50 was 10000 to 30000 nM.

Turning to `N#CN1CCC(C(=O)Nc2ccc(-c3ccccc3)nn2)C1` (centres unmarked) [Example 36, 1-cyano-N-(6-phenyl-pyridazin-3-yl)pyrrolidine-3-carboxamide], the IC50 was 10000 to 30000 nM.

Consider `N#CN1CC[C@H](C(=O)Nc2cn3ccccc3n2)C1` [Example 49, (S)-1-cyano-N-N-(imidazo[1,2-a]pyridin-2-yl)-pyrrolidine-3-carboxamide], for which the IC50 was in the range of 1000 to 10000 nM.

For the compound `Cc1n[nH]c(C)c1-c1ccc2nc(NC(=O)[C@H]3CCN(C#N)C3)sc2c1` [Example 125, (S)-1-cyano-N-(6-(3,5-dimethyl-1H-pyrazol-4-yl)benzo[d]thiazol-1-2-yl)pyrrolidine-3-carboxamide], the IC50 was below 1000 nM.

Consider `COc1ccc2nc(NC(=O)C3CCN(C#N)C3)sc2c1` (centres unmarked) [Example 21, 1-cyano-N-(6-methoxybenzo[d]thiazol-2-yl)pyrrolidine-3-carboxamide], for which the half-inhibitory concentration (IC50) lay in the range of 1000 to 10000 nM.

Turning to `N#CN1CC[C@H](C(=O)Nc2cc(C3CCOCC3)[nH]n2)C1` [Example 43, (S)-1-cyano-N-(5-(tetrahydro-2H-pyran-4-yl)-1H-pyrazol-3-yl)pyrrolidine-3-carboxamide], the IC50 was below 1000 nM.

In the case of `CNC(=O)c1cccc(-n2cnc(NC(=O)[C@H]3CCN(C#N)C3)c2)c1` [Example 156, (S)-1-cyano-N-(1-(3-(methylcarbamoyl)phenyl)-1H-imidazol-4-yl)pyrrolidine-3-carboxamide], the 50% inhibitory concentration (IC50) is below 1000 nM.

Turning to `N#CN1CC[C@H](C(=O)Nc2cn(C3CCOCC3)cn2)C1` [Example 161, (S)-1-cyano-N-(1-(tetrahydro-2H-pyran-4-yl)-1H-imidazol-4-yl)pyrrolidine-3-carboxamide], the IC50 is below 1000 nM.
